In brackets after ≈: the same amount, converted by molar mass. Activity calls are given as the source filed them. The calls are words filed in the database; no cut-off is given here. Numbered stars: 1 amine (or outer) side, 2 acyl side, 3 side chain; on linkers, the order of the positions; unused ones are H or OH. Bridge positions count the residues as written; N and C are the ends. Square brackets hold non-standard residues; d marks the D form. Peptide text beside a SMILES is read from it. * marks the point of attachment. hTyr(3S-OH,4S-OH,3'-OSO3H) = N[C@H](C(=O)O)[C@H](O)[C@@H](O)c1ccc(O)c(OS(=O)(=O)O)c1; Orn(4R-OH,5R-OH) = O=C([C@H](C[C@@H](O)[C@@H](O)N[*:3])N[*:1])[*:2]; Pro(3S-OH,4S-Me) = C[C@H]1CN[C@H](C(=O)O)[C@H]1O; X1 = CCCCCOc1ccc(-c2cc(-c3ccc(C(=O)*)cc3)no2)cc1; Gln(3R-OH) = NC(=O)C[C@@H](O)[C@H](N)C(=O)O; Hyp = O=C(O)[C@@H]1C[C@@H](O)CN1
Assays:
Candida orthopsilosis [1] = experiment: Antifungal activity against Candida orthopsilosis clinical isolate bloodstream form assessed as time required for 99.9% reduction in fungal growth at 16 mg/L by time-kill assay; assay type: functional
Candida metapsilosis [2] = experiment: Antifungal activity against Candida metapsilosis clinical isolate bloodstream form assessed as time required for 50% reduction in fungal growth at 0.25 mg/L by time-kill assay; assay type: functional
Candida metapsilosis [3] = experiment: Antifungal activity against Candida metapsilosis clinical isolate bloodstream form assessed as time required for 50% reduction in fungal growth at 1 mg/L by time-kill assay; assay type: functional
Candida metapsilosis [4] = experiment: Antifungal activity against Candida metapsilosis clinical isolate bloodstream form assessed as time required for 50% reduction in fungal growth at 4 mg/L by time-kill assay; assay type: functional
Candida metapsilosis [5] = experiment: Antifungal activity against Candida metapsilosis clinical isolate bloodstream form assessed as time required for 50% reduction in fungal growth at 16 mg/L by time-kill assay; assay type: functional
Candida metapsilosis [6] = experiment: Antifungal activity against Candida metapsilosis clinical isolate bloodstream form assessed as time required for 50% reduction in fungal growth at 32 mg/L by time-kill assay; assay type: functional
Candida metapsilosis [7] = experiment: Antifungal activity against Candida metapsilosis clinical isolate bloodstream form assessed as time required for 90% reduction in fungal growth at 4 mg/L by time-kill assay; assay type: functional
Candida metapsilosis [8] = experiment: Antifungal activity against Candida metapsilosis clinical isolate bloodstream form assessed as time required for 99% reduction in fungal growth at 16 mg/L by time-kill assay; assay type: functional
Candida metapsilosis [9] = experiment: Antifungal activity against Candida metapsilosis clinical isolate bloodstream form assessed as time required for 99.9% reduction in fungal growth at 32 mg/L by time-kill assay; assay type: functional
Candida parapsilosis [10] = experiment: Antifungal activity against Candida parapsilosis clinical isolate bloodstream form assessed as time required for 50% reduction in fungal growth at 1 mg/L by time-kill assay; assay type: functional
Candida parapsilosis [11] = experiment: Antifungal activity against Candida parapsilosis clinical isolate bloodstream form assessed as time required for 50% reduction in fungal growth at 4 mg/L by time-kill assay; assay type: functional
Candida parapsilosis [12] = experiment: Antifungal activity against Candida parapsilosis clinical isolate bloodstream form assessed as time required for 50% reduction in fungal growth at 32 mg/L by time-kill assay; assay type: functional
Candida parapsilosis [13] = experiment: Antifungal activity against Candida parapsilosis clinical isolate bloodstream form assessed as time required for 90% reduction in fungal growth at 0.25 mg/L by time-kill assay; assay type: functional
Candida parapsilosis [14] = experiment: Antifungal activity against Candida parapsilosis clinical isolate bloodstream form assessed as time required for 90% reduction in fungal growth at 4 mg/L by time-kill assay; assay type: functional
Candida parapsilosis [15] = experiment: Antifungal activity against Candida parapsilosis clinical isolate bloodstream form assessed as time required for 99% reduction in fungal growth at 4 mg/L by time-kill assay; assay type: functional
Candida parapsilosis [16] = experiment: Antifungal activity against Candida parapsilosis clinical isolate bloodstream form assessed as time required for 99% reduction in fungal growth at 32 mg/L by time-kill assay; assay type: functional
Candida parapsilosis [17] = experiment: Antifungal activity against Candida parapsilosis clinical isolate bloodstream form assessed as time required for 99.9% reduction in fungal growth at 4 mg/L by time-kill assay; assay type: functional
Candida parapsilosis [18] = experiment: Antifungal activity against Candida parapsilosis clinical isolate bloodstream form assessed as time required for 99.9% reduction in fungal growth at 16 mg/L by time-kill assay; assay type: functional
Candida orthopsilosis [19] = experiment: Fungicidal activity against Candida orthopsilosis isolate CP-151 bloodstream form by CLSI method; assay type: functional; conditions: Lodderomyces orthopsilosis
Candida orthopsilosis [20] = experiment: Fungicidal activity against Candida orthopsilosis isolate ATC194 bloodstream form by CLSI method; assay type: functional; conditions: Lodderomyces orthopsilosis, isolate ATC-194
Candida metapsilosis [21] = experiment: Fungicidal activity against Candida metapsilosis isolate CP-132 bloodstream form by CLSI method; assay type: functional; conditions: Lodderomyces metapsilosis
Candida metapsilosis [22] = experiment: Fungicidal activity against Candida metapsilosis isolate CP-133 bloodstream form by CLSI method; assay type: functional; conditions: Lodderomyces metapsilosis
Candida parapsilosis [23] = experiment: Fungicidal activity against Candida parapsilosis isolate CP-300 bloodstream form by CLSI method; assay type: functional; conditions: Lodderomyces parapsilosis
Candida parapsilosis [24] = experiment: Antifungal activity against Candida parapsilosis clinical isolate bloodstream form assessed as fungal count at 4 mg/L measured at 6 hrs by time-kill assay; assay type: functional
Candida parapsilosis [25] = experiment: Antifungal activity against Candida parapsilosis clinical isolate bloodstream form assessed as induction of miniparadoxical effect at 16 mg/L after 48 hrs by time-kill assay; assay type: functional, organism-based
Candida orthopsilosis [26] = experiment: Antifungal activity against Candida orthopsilosis clinical isolate bloodstream form assessed as induction of miniparadoxical effect at 16 mg/L after 48 hrs by time-kill assay; assay type: functional, organism-based
Candida parapsilosis [27] = experiment: Antifungal activity against Candida parapsilosis clinical isolate bloodstream form assessed as inhibition of fungal regrowth at 0.03 to 32 mg/L after 6 hrs by time-kill assay; assay type: functional, organism-based
Candida parapsilosis [28] = experiment: Antifungal activity against Candida parapsilosis clinical isolate bloodstream form assessed as induction of fungal killing rate at 0.03 to 32 mg/L measured at 6 hrs by time-kill assay; assay type: functional, organism-based
Candida orthopsilosis [29] = experiment: Antifungal activity against Candida orthopsilosis clinical isolate bloodstream form assessed as induction of maximal fungal death at 16 mg/L after 48 hrs by time-kill assay; assay type: functional, organism-based
Candida parapsilosis [30] = experiment: Antifungal activity against Candida parapsilosis clinical isolate bloodstream form assessed as minimum concentration required for => 3-log decrease in fungal growth after 12 to 48 hrs by time-kill assay; assay type: functional
Candida orthopsilosis [31] = experiment: Antifungal activity against Candida orthopsilosis clinical isolate bloodstream form assessed as time required for 50% reduction in fungal growth at 1 mg/L by time-kill assay; assay type: functional
Candida orthopsilosis [32] = experiment: Antifungal activity against Candida orthopsilosis clinical isolate bloodstream form assessed as time required for 50% reduction in fungal growth at 16 mg/L by time-kill assay; assay type: functional
Candida orthopsilosis [33] = experiment: Antifungal activity against Candida orthopsilosis clinical isolate bloodstream form assessed as time required for 50% reduction in fungal growth at 32 mg/L by time-kill assay; assay type: functional
Candida orthopsilosis [34] = experiment: Antifungal activity against Candida orthopsilosis clinical isolate bloodstream form assessed as time required for 90% reduction in fungal growth at 0.25 mg/L by time-kill assay; assay type: functional
Candida orthopsilosis [35] = experiment: Antifungal activity against Candida orthopsilosis clinical isolate bloodstream form assessed as time required for 90% reduction in fungal growth at 1 mg/L by time-kill assay; assay type: functional
Candida orthopsilosis [36] = experiment: Antifungal activity against Candida orthopsilosis clinical isolate bloodstream form assessed as time required for 90% reduction in fungal growth at 4 mg/L by time-kill assay; assay type: functional
Candida orthopsilosis [37] = experiment: Antifungal activity against Candida orthopsilosis clinical isolate bloodstream form assessed as time required for 90% reduction in fungal growth at 16 mg/L by time-kill assay; assay type: functional
Candida orthopsilosis [38] = experiment: Antifungal activity against Candida orthopsilosis clinical isolate bloodstream form assessed as time required for 90% reduction in fungal growth at 32 mg/L by time-kill assay; assay type: functional
Candida orthopsilosis [39] = experiment: Antifungal activity against Candida orthopsilosis clinical isolate bloodstream form assessed as time required for 99% reduction in fungal growth at 1 mg/L by time-kill assay; assay type: functional
Candida metapsilosis [40] = experiment: Antifungal activity against Candida metapsilosis clinical isolate bloodstream form assessed as induction of maximal fungal death at 32 mg/L after 48 hrs by time-kill assay; assay type: functional, organism-based

Compound | Time (Candida orthopsilosis [1]) [h] | Time (Candida metapsilosis [2]) [h] | Time (Candida metapsilosis [3]) [h] | Time (Candida metapsilosis [4]) [h] | Time (Candida metapsilosis [5]) [h] | Time (Candida metapsilosis [6]) [h] | Time (Candida metapsilosis [7]) [h] | Time (Candida metapsilosis [8]) [h] | Time (Candida metapsilosis [9]) [h] | Time (Candida parapsilosis [10]) | Time (Candida parapsilosis [11]) [h] | Time (Candida parapsilosis [12]) [h] | Time (Candida parapsilosis [13]) | Time (Candida parapsilosis [14]) [h] | Time (Candida parapsilosis [15]) [h] | Time (Candida parapsilosis [16]) [h] | Time (Candida parapsilosis [17]) [h] | Time (Candida parapsilosis [18]) [h] | MIC (Candida orthopsilosis [19]) [µg/mL] | MIC (Candida orthopsilosis [20]) [µg/mL] | further results
CC[C@H](C)C[C@H](C)CCCCCCCCC(=O)N[C@H]1C[C@@H](O)[C@@H](NCCN)NC(=O)[C@@H]2[C@@H](O)CCN2C(=O)[C@H]([C@H](O)CCN)NC(=O)[C@H]([C@H](O)[C@@H](O)c2ccc(O)cc2)NC(=O)[C@@H]2C[C@@H](O)CN2C(=O)[C@H]([C@@H](C)O)NC1=O [CASPOFUNGIN] | 38.46 | >48 | 22.3 | 7.7 | 2.59 | 1.99 | 25.58 | 17.21 | 19.8 | 22.3 h | 7.7 | 1.99 | >48 h | 25.58 | >48 | >48 | >48 | >48 | 0.5 (≈ 0.457 µM) | 0.5 (≈ 0.457 µM) | MIC (Candida metapsilosis [21]): 0.25 µg/mL (≈ 0.229 µM); MIC (Candida metapsilosis [22]): 0.5 µg/mL (≈ 0.457 µM); MIC (Candida parapsilosis [23]): 2 µg/mL (≈ 1.83 µM); log10cfu (Candida parapsilosis [24]): 1.43 /ml; Activity (Candida parapsilosis [25]): Active; Activity (Candida orthopsilosis [26]): Active; inhibition (Candida parapsilosis [27]): inactive; Activity (Candida parapsilosis [28]): inactive; Activity (Candida orthopsilosis [29]): Active; MED (Candida parapsilosis [30]): 14 mg/L; Time (Candida orthopsilosis [31]): 7.45 h; Time (Candida orthopsilosis [32]): 3.86 h; Time (Candida orthopsilosis [33]): 10.53 h; Time (Candida orthopsilosis [34]): >48 h; Time (Candida orthopsilosis [35]): 24.75 h; Time (Candida orthopsilosis [36]): 11.35 h; Time (Candida orthopsilosis [37]): 12.82 h; Time (Candida orthopsilosis [38]): 34.97 h; Time (Candida orthopsilosis [39]): >48 h
CCCCCOc1ccc(-c2cc(-c3ccc(C(=O)N[C@H]4C[C@@H](O)[C@@H](O)NC(=O)[C@@H]5[C@@H](O)[C@@H](C)CN5C(=O)[C@H]([C@H](O)CC(N)=O)NC(=O)[C@H]([C@H](O)[C@@H](O)c5ccc(O)c(OS(=O)(=O)O)c5)NC(=O)[C@@H]5C[C@@H](O)CN5C(=O)[C@H]([C@@H](C)O)NC4=O)cc3)no2)cc1 [MICAFUNGIN] (X1-[Orn(4R-OH,5R-OH)]T[Hyp][hTyr(3S-OH,4S-OH,3'-OSO3H)][Gln(3R-OH)][Pro(3S-OH,4S-Me)]; lactam 1-C) | 13.76 | >48 | 3.06 | 1.77 | 1.45 | 1.43 | 5.89 | 9.61 | 14.29 | inactive | 17.6 | 6.16 | inactive | >48 | >48 | >48 | >48 | >48 | 0.25 (≈ 0.197 µM) | 0.5 (≈ 0.394 µM) | MIC (Candida metapsilosis [21]): 0.5 µg/mL (≈ 0.394 µM); MIC (Candida metapsilosis [22]): 0.12 µg/mL (≈ 0.0945 µM); MIC (Candida parapsilosis [23]): 0.25 µg/mL (≈ 0.197 µM); inhibition (Candida parapsilosis [27]): inactive; Activity (Candida parapsilosis [28]): inactive; Activity (Candida orthopsilosis [29]): Active; Activity (Candida metapsilosis [40]): Active; Time (Candida orthopsilosis [31]): 3.05 h; Time (Candida orthopsilosis [32]): 1.38 h; Time (Candida orthopsilosis [33]): 1.54 h; Time (Candida orthopsilosis [34]): >48 h; Time (Candida orthopsilosis [35]): 10.13 h; Time (Candida orthopsilosis [36]): 5.53 h; Time (Candida orthopsilosis [37]): 4.59 h; Time (Candida orthopsilosis [38]): 5.11 h; Time (Candida orthopsilosis [39]): 20.26 h

From ChEMBL document CHEMBL1255421, “In vitro fungicidal activities of echinocandins against Candida metapsilosis, C. orthopsilosis, and C. parapsilosis evaluated by time-kill studies” (2010)
